Laboratory results reported in ChEMBL document CHEMBL1158314, “Antimycobacterial cycloartanes from Borrichia frutescens” (J Nat Prod, 1996).
Converted amounts (≈) assume the structure as drawn.

Tests used:
[1] = test system: Mycobacterium tuberculosis; experiment: Antimycobacterial activity against Mycobacterium tuberculosis H37Rv after 3 days by radiorespirometric assay; format: functional; conditions: 72 h
Vero = experiment: Cytotoxicity against african green monkey Vero cells after 72 hrs; format: cell-based; conditions: Chlorocebus sabaeus

Compound	MIC [1]	IC50 (Vero)
CC(=O)O[C@H]1CC[C@]23C[C@]24CC[C@]2(C)[C@@H]([C@H](C)CC[C@H]5OC5(C)C)CC[C@@]2(C)[C@@H]4CC[C@H]3C1(C)C	> 128 µg/mL	–
CC(C)=C[C@H](O)C[C@@H](C)[C@H]1CC[C@@]2(C)C3=C(CC[C@]12C)[C@@]1(C)CCC(=O)C(C)(C)[C@@H]1CC3	64 µg/mL (≈ 145 µM)	104 µg/mL (≈ 235 µM)
C[C@@H]1CC[C@H](C(C)(C)O)O[C@H]2C[C@@]3(C)[C@@H]4CC[C@H]5C(C)(C)C(=O)CC[C@@]56C[C@@]46CC[C@]3(C)[C@@H]12 [ARGENTATINE B]	> 128 µg/mL	–
CC(C)(O)[C@@H]1CC[C@](C)([C@H]2C(O)C[C@@]3(C)[C@@H]4CC[C@H]5C(C)(C)C(=O)CC[C@@]56C[C@@]46CC[C@]23C)O1 (stereo partly specified) [ARGENTATINE A]	> 128 µg/mL	–
C[C@H](CC[C@H]1OC1(C)C)[C@H]1CC[C@@]2(C)[C@@H]3CC[C@H]4C(C)(C)C(=O)CC[C@@]45C[C@@]35CC[C@]12C	8 µg/mL (≈ 18.2 µM)	71.8 µg/mL (≈ 163 µM)
C[C@H](CC[C@H]1OC1(C)C)[C@H]1CC[C@@]2(C)[C@@H]3CC[C@H]4C(C)(C)[C@@H](O)CC[C@@]45C[C@@]35CC[C@]12C	8 µg/mL (≈ 18.1 µM)	39.8 µg/mL (≈ 89.9 µM)
CC(=O)O[C@H]1C[C@@]2(C)[C@@H](C[C@@H](O)[C@H]3[C@@]4(C)CC[C@@H](O)[C@@H](C)[C@@H]4CC[C@@]32C)/C1=C(\CCC=C(C)C)C(=O)O [FUSIDIC ACID]	4 µg/mL (≈ 7.74 µM)	106 µg/mL (≈ 205 µM)
